Reference: PMC6689897, “Drugging an undruggable pocket on KRAS” (Proceedings of the National Academy of Sciences of the …, 2019)

Tested on: NCI-H358 cells
Test: Soft agar proliferation assay in low serum
Type: cell-based
Settings: Homo sapiens, soft agar and low serum conditions, read-out: EC50 antiproliferative effect
Method: 263 (ATCC® CCL-224™; grown in RPMI 10% FCS) and SK-MEL-28 (ATCC® HTB-
264 72™, grown in EMEM 10% FCS). Cell cultures were incubated at 37 °C and 5% CO2 in
265 a humidified atmosphere, with medium change or subcultivation 2-3 times a week.
269 Cells were lysed in 1x lysis buffer (Cell Signaling #9803) and protein concentration
270 normalized to 10µg/µL. Proteins were separated by SDS-Page and transferred to
271 Nitrocellulose membranes (BioRad) according to standard protocols. Membranes were
273 (Milipore #06-182) and Tubulin (Cell Signaling #2144) in 5% BSA in TBST blocking
274 buffer. After primary antibody incubation membranes were incubated with anti-rabbit
275 IgG secondary antibody (Dako #P0448) and detected with ECL (GE Healthcare Life
278 Compound treatment of cells
279 Synthesized or purchased (ARS 1620) compounds were dissolved in 100% DMSO and
280 stored at a concentration of 10mM at -20°C. Compounds were either serially diluted in […]
Quantification of living cells […]
291 manufacturer’s recommendation. Luminescence was read in a 2030 VICTOR X5 (Perkin […]
305 were trypsinized, counted and plated in 60 µL culture medium containing 2% FCS […]
313 added according to manufacturer’s instructions. Fluorescence intensity was determined
314 using a fluorescence reader (2030 VICTOR X5, Perkin Elmer). […]
319 MAPK pathway signaling (pERK, pAKT quantification) […]

Cn1cnc(Cn2ccc3ccc(CNCc4[nH]c5ccccc5c4[C@H]4NC(=O)c5ccc(O)cc54)cc32)c1 [Compound 1]
EC50: 6.7 µM
